Data reported in patent US11366090B2, “Method for the inactivation and inactivation testing of xeno antigens in foods of animal origin, particularly for milk and derivatives, and in foods of plant origin, particularly for milk substitutes based on soy and/or rice” (Biocompatibility Innovation S.R.L., priority 2016, dated 2022).

Experiments:
alpha-Gal epitope [1] = assay: inactivation test of alpha-Gal epitopes in samples of cow's milk (M86 antibody incubation, centrifugation, alpha-Gal/HSA ELISA); format: biochemical; settings: 0.5% w/v, ambient temperature
Procedure: incubating samples of milk with the addition of an antibody aimed at the alpha-Gal epitope that is present in the milk; in such embodiment, the antibody is for example a murine monoclonal antibody M86; it should be understood that all mono- or polyclonal antibodies and/or antibodies belonging to different isotypes, which have shown a proven specificity against the antigen in question, can be used; in general, the anti-xenoantigen antibody is an antibody specifically aimed at the alpha-Gal epitope;
separating, by way of centrifugation, the resulting immune complex created owing to the bond between antigen and antibody;
preparing a plate with 96 wells for the E.L.I.S.A. text with coating comprising the xenoantigen epitope, i.e. an alpha-Gal/human serum albumin coating;
adding, in the wells, supernatant taken from the milk samples subjected to centrifuge; the supernatant contains the part of anti-alpha-Gal antibody that has not bonded with epitopes; as is known, a column of wells is adapted to define a reference value, known in the jargon as ‘blank value’, that corresponds to the maximum signal between antibody and epitopes,
completing the plate with a secondary antibody conjugated with an enzyme, or other molecule for qualitative or quantitative evaluation through colorimetric assay, adapted to chromatically highlight the presence if any of the anti-alpha-Gal antibody; in the present embodiment, the secondary antibody is constituted by a rabbit polyclonal anti-mouse antibody, conjugated with the peroxidase enzyme, or with other types, enzymatic or otherwise, capable of providing qualitative or quantitative indications through colorimetric assay;
reading the plate, determining the presence of anti-alpha-Gal antibody that has remained free in the solutions of the samples;
comparing the absorbance values detected in the column that defines the reference values with the values detected in the other columns of samples of the plate.
Two solutions are made up with different concentrations of phenylpropanoid, using the milk as solvent in a total volume of 50 ml. In this specific example, which obviously should be understood to be non-limiting of the invention, an extract of “Lippia Citriodora” was used, titrated at 93% verbascoside. […]
These solutions are left to act under moderate but constant stirring, for a total of […] at 25±5° C.
Samples are taken at 30±2 minutes, 1±0.1 hour and 3±0.1 hours.
An aliquot of milk is taken from each sampling, comprised between 200 ul and 500 ul, and preferably 300 ul, to which a buffer is added, Na3C6H5O7 0.2M at pH 7.0±0.5, until a final volume is reached comprised between 1000 ul and 1500 ul, and preferably a final volume of 1500 ul.
Then a murine antibody, directed against the alpha-Gal epitope, is added (in the present example this is an IgM clone called M86), at the preferable concentration of [1:50] w/v and the whole is incubated for 120±10 minutes at 37±2° C. under constant but moderate stirring.
At the end the samples are subjected to centrifugation at 10,000×g for 30±2 minutes at 4±2° C.
During incubation with the M86 antibody, a plate with 96 wells is prepared with 100 ul per well of alpha-Gal/HSA (Human Serum Albumin) at 5 ug/ml in a PBS buffer (pH 7.0±0.5).
The plate thus prepared is incubated for 60±10 minutes at a temperature comprised between 30° C.-40° C., although it is preferable to stabilize everything at 37° C.±2.0° C.
Then 3 washes are carried out with 300 ul per well of PBS (physiological pH) at ambient temperature.
The first wash is left to act for 5 minutes, the two subsequent washes for 3 minutes each.
The blocking is done with 300 ul per well of 2±0.5% of serum albumin in PBS, followed by covering the plate with protective film and incubation for 60±10 minutes at ambient temperature, in darkness.
Subsequently 3 washes are performed as above. […]

alpha-Gal epitope [2] = assay: inactivation test of alpha-Gal epitopes in samples of milk substitutes based on rice and soya (M86 antibody incubation, centrifugation, alpha-Gal/HSA ELISA); format: biochemical; settings: milk substitute based on rice and soya, caffeic acid 0.3% w/v (method: 0.5±0.05% w/v), ambient temperature
Procedure: Three solutions are made up, using a milk substitute based on rice and soya as solvent, for example a substitute comprising 17% rice, 17% soy seeds, in a total volume of 50 ml. In the present example, which is non-limiting of the invention, extracts of “Lippia citriodora” are used, titrated at 93% verbascoside. […] These solutions are left to act under moderate but constant stirring, for a total of 3±0.1 hours at 25±5° C. Samples are taken at 30±2 minutes, 1±0.1 hour and 3±0.1 hours. An aliquot of milk is taken from each sampling, comprised between 200 and 500 ul, and preferably a dose of 300 ul, to which a buffer is added, Na3C6H5O7 at pH 7.0±0.5, until a final volume is reached comprised between 1000 and 1500 ul, and preferably a final volume of 1500 ul. Then a murine antibody, directed against the alpha-Gal epitope, is added, for example an IgM clone called M86, at the preferable concentration of [1:50] w/v and the whole is incubated for 120±10 minutes at 37±2° C. under constant but moderate stirring. At the end the samples are subjected to centrifugation at 10,000×g for 30±2 minutes at 4±2° C. During incubation with the M86 antibody, a plate with 96 wells is prepared with 100 ul per well of alpha-Gal/HSA (Human Serum Albumin) at 5 ug/ml in a PBS buffer (pH 7.0±0.5). The plate thus prepared is incubated for 60±10 minutes at a temperature comprised between 30° C.-40° C., although it is preferable to stabilize everything at 37±2.0° C. Then 3 washes are carried out with 300 ul per well of PBS (physiological pH) at ambient temperature. The first wash is left to act for 5 minutes, the two subsequent washes for 3 minutes each. […] Then 50 ul per well of the stop solution is added, which is constituted by H2SO4 2M and the plate is then read in a plate reader at the wavelength of 450 nm. The test of inactivation is based on the comparison between the absorbance values of column number 1 which constitutes the blank value (100% of antibody available) and the respective columns of the samples. […]

## O=C(O)/C=C/c1ccc(O)c(O)c1 [caffeic acid]
alpha-Gal epitope [1]; after 30 minutes
  antigens inactivated: 51.2±4.2%
alpha-Gal epitope [1]; after 1 hour
  antigens inactivated: 61.1±2.6%
alpha-Gal epitope [1]; after 3 hours of incubation
  antigens inactivated: 72.3±2.8%
alpha-Gal epitope [2]; after 30 minutes
  antigens inactivated: 61.8±2.8%
alpha-Gal epitope [2]; after 1 hour
  antigens inactivated: 78.3±4.1%
alpha-Gal epitope [2]; after 3 hours of incubation
  antigens inactivated: 89.2±1.8%

## O=C(OC[C@H]1O[C@@H](OC(=O)c2cc(O)c(O)c(OC(=O)c3cc(O)c(O)c(O)c3)c2)[C@H](OC(=O)c2cc(O)c(O)c(OC(=O)c3cc(O)c(O)c(O)c3)c2)[C@@H](OC(=O)c2cc(O)c(O)c(OC(=O)c3cc(O)c(O)c(O)c3)c2)[C@@H]1OC(=O)c1cc(O)c(O)c(OC(=O)c2cc(O)c(O)c(O)c2)c1)c1cc(O)c(O)c(OC(=O)c2cc(O)c(O)c(O)c2)c1 [tannic acid]
alpha-Gal epitope [1]; after 30 minutes
  antigens inactivated: 67.7±7.1%
alpha-Gal epitope [1]; after 1 hour
  antigens inactivated: 71.8±2.2%
alpha-Gal epitope [1]; after 3 hours of incubation
  antigens inactivated: 80.6±1.8%
